One assay addresses T1, PHD2181-417 (Homo sapiens, UniProt Q9GZT9).
T1 construct: histidine tag (N, cleaved yes); Smt3 (SUMO) tag (N, cleaved yes); made in house; host or cells: E. coli BL21 (pBAD vector)
In words: PHD enzyme activity assay ([14C]-succinic acid production).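 Also: enzyme expressed in E. coli BL21, assayed in Tris-HCl pH 7.5 with catalase, DTT and ascorbate, [14C]-succinic acid beta-counted after DNP precipitation of residual 2-oxoglutarate.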 In kind it is biochemical. Particulars: inhibition of PHD2181-417 activity; HIF-1α peptide 10 μM, [5-14C]-2-oxoglutaric acid, 10 minutes; read-out: Enzyme pIC50 (converted).

The test system of another assay is Hep-3B cells. In words: Cellular assay: EPO secretion in Hep-3B cells. Particulars: 24 hours, percent of EPO secretion relative to assay control compound. In kind it is cell-based, human.
Setting [1] is: final compound concentration 100 μM.
Setting [2] is: final compound concentration of 10 μM.

Marks after values point to notes of the source that are not given here.

T1 sequence (Q9GZT9 181-417): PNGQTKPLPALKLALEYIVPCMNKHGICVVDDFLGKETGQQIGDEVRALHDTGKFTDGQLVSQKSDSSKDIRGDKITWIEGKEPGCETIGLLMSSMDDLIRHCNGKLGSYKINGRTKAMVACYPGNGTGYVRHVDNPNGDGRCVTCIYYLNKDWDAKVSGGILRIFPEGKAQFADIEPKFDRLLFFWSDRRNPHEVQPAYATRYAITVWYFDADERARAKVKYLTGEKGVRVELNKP

Take `C[C@@H](NC(=O)c1nc2ccc(I)cc2[nH]1)C(=O)O` [Example 54, (R)-2-[(5-Iodo-1H-benzoimidazole-2-carbonyl)-amino]-propionic acid]: the IC50 at PHD2181-417 is greater than 100 µM. In addition, the “Cellular % EPO Stimulation” value in the assay with Hep-3B cells (setting [1]) is 7.50%.

Take `C[C@H](NC(=O)c1nc2ccc(F)cc2[nH]1)C(=O)O` [Example 10, (S)-2-[(6-Fluoro-1H-benzoimidazole-2-carbonyl)-amino]-propionic acid]: the IC50 at PHD2181-417 is greater than 100 µM. In the assay with Hep-3B cells (setting [1]), the “Cellular % EPO Stimulation” value was 14.74%.

In the case of `O=C(O)CNC(=O)c1nc2cc(-c3cccc(OCc4cccc(Cl)c4)c3)ccc2[nH]1` [Example 13, ({5-[3-(3-Chloro-benzyloxy)-phenyl]-1H-benzoimidazole-2-carbonyl}-amino)-acetic acid], the IC50 at PHD2181-417 was 1.58 µM. The “Cellular % EPO Stimulation” value in the assay on Hep-3B cells (setting [1]) is reported as 1.20%.

Regarding `Cc1cc(-c2ccc3[nH]c(C(=O)NCC(=O)O)nc3c2)ccc1Cl` [Example 27, {[5-(4-Chloro-3-methyl-phenyl)-1H-benzoimidazole-2-carbonyl]-amino}-acetic acid], the IC50 on PHD2181-417 was 39.8 µM. Further, the “Cellular % EPO Stimulation” value in the assay on Hep-3B cells (setting [1]) was −0.70%.

In the case of `Cc1cc(-c2ccc3[nH]c(C(=O)NCC(=O)O)nc3c2)cc(C)c1OCc1cccc(Cl)c1` [Example 22, ({5-[4-(3-Chloro-benzyloxy)-3,5-dimethyl-phenyl]-1H-benzoimidazole-2-carbonyl}-amino)-acetic acid], at PHD2181-417, the IC50 was 12.6 µM. Also, in the assay on Hep-3B cells (setting [1]), the “Cellular % EPO Stimulation” value was −1.06%.

For the molecule `C[C@@H](NC(=O)c1nc2cc(Cl)c(Cl)cc2[nH]1)C(=O)O` [Example 53, (R)-2-[(5,6-Dichloro-1H-benzoimidazole-2-carbonyl)-amino]-propionic acid], on PHD2181-417, the IC50 is greater than 100 µM. The “Cellular % EPO Stimulation” value in the assay on Hep-3B cells (setting [2]) is listed as 11.3* %.

As for `O=C(O)CNC(=O)c1nc2ccc(NS(=O)(=O)c3ccccc3)cc2[nH]1` [Example 30, [(6-Benzenesulfonylamino-1H-benzoimidazole-2-carbonyl)-amino]-acetic acid], at PHD2181-417, the IC50 is 31.6 µM. Further, in the assay with Hep-3B cells (setting [1]), the “Cellular % EPO Stimulation” value worked out at 1.10%.

Take `O=C(O)CNC(=O)c1nc2cc(-c3cccc(OCc4ccccc4F)c3)ccc2[nH]1` [Example 17, ({5-[3-(2-Fluoro-benzyloxy)-phenyl]-1H-benzoimidazole-2-carbonyl}-amino)-acetic acid]: on PHD2181-417, the IC50 is 5.01 µM. Moreover, the “Cellular % EPO Stimulation” value with Hep-3B cells (setting [1]) stood at 1.50%.

On to `CC(NC(=O)c1nc2ccccc2[nH]1)C(=O)O` (stereo in doubt) [Example 50, (R)-2-[(1H-Benzoimidazole-2-carbonyl)-amino]-propionic acid], for which the IC50 at PHD2181-417 is greater than 100 µM. The “Cellular % EPO Stimulation” value in the assay on Hep-3B cells (setting [2]) was 9.50* %.

With `O=C(O)CNC(=O)c1nc2cc(-c3ccc4ccccc4c3)ccc2[nH]1` [Example 25, [(5-Naphthalen-2-yl-1H-benzoimidazole-2-carbonyl)-amino]-acetic acid], the IC50 at PHD2181-417 was 12.6 µM. In the assay on Hep-3B cells (setting [1]), the “Cellular % EPO Stimulation” value came out at 2.10%.

In the case of `C[C@H](NC(=O)c1nc2cc(Cl)c(Cl)cc2[nH]1)C(=O)O` [Example 4, (S)-2-[(5,6-Dichloro-1H-benzoimidazole-2-carbonyl)-amino]-propionic acid], the IC50 on PHD2181-417 is 25.1 µM. In the assay on Hep-3B cells (setting [1]), the “Cellular % EPO Stimulation” value turned out to be 7.70%.

As to `O=C(O)CNC(=O)c1nc2cc(-c3cnc4ccccc4c3)ccc2[nH]1` [Example 20, [(5-Quinolin-3-yl-1H-benzoimidazole-2-carbonyl)-amino]-acetic acid], the IC50 at PHD2181-417 is 1.58 µM. Also, in the assay with Hep-3B cells (setting [1]), the “Cellular % EPO Stimulation” value stood at 8.26%.

For `O=C(O)CNC(=O)c1nc2cc(-c3cc(F)cc(OCc4ccccc4)c3)ccc2[nH]1` [Example 19, {[5-(3-Benzyloxy-5-fluoro-phenyl)-1H-benzoimidazole-2-carbonyl]-amino}-acetic acid], the IC50 at PHD2181-417 is 6.31 µM. Besides, the “Cellular % EPO Stimulation” value in the assay on Hep-3B cells (setting [1]) is recorded as −3.80%.

Turning to `O=C(O)CNC(=O)c1nc2cc(-c3cc(Cl)ccc3F)ccc2[nH]1` [Example 28, {[5-(5-Chloro-2-fluoro-phenyl)-1H-benzoimidazole-2-carbonyl]-amino}-acetic acid], the IC50 at PHD2181-417 was 25.1 µM. Moreover, in the assay on Hep-3B cells (setting [1]), the “Cellular % EPO Stimulation” value turned out to be 1.40%.

In the case of `O=C(O)CNC(=O)c1nc2ccc(NCc3ccccc3)cc2[nH]1` [Example 31, [(6-Benzylamino-1H-benzoimidazole-2-carbonyl)-amino]-acetic acid], the IC50 on PHD2181-417 is 5.01 µM. The “Cellular % EPO Stimulation” value with Hep-3B cells (setting [1]) was 1.40%.

For `O=C(NC(CO)C(=O)O)c1nc2ccccc2[nH]1` (stereo in doubt) [Example 51, (R)-2-[(1H-Benzoimidazole-2-carbonyl)-amino]-3-hydroxy-propionic acid], the IC50 at PHD2181-417 is 20 µM. The “Cellular % EPO Stimulation” value in the assay on Hep-3B cells (setting [2]) is reported as 0.73* %.

Consider `O=C(O)CNC(=O)c1nc2cc(-c3cccc(OCc4cccc(F)c4)c3)ccc2[nH]1` [Example 16, ({5-[3-(3-Fluoro-benzyloxy)-phenyl]-1H-benzoimidazole-2-carbonyl}-amino)-acetic acid], for which, on PHD2181-417, the IC50 was 2.51 µM. For the same molecule, the “Cellular % EPO Stimulation” value in the assay on Hep-3B cells (setting [1]) is listed as 2.10%.

As to `O=C(O)CNC(=O)c1nc2cc(-c3ccc(OCc4cccc(Cl)c4)c(Cl)c3)ccc2[nH]1` [Example 21, ({5-[3-Chloro-4-(3-chloro-benzyloxy)phenyl]-1H-benzoimidazole-2-carbonyl}-amino)-acetic acid], the IC50 on PHD2181-417 is 7.94 µM. In addition, in the assay with Hep-3B cells (setting [1]), the “Cellular % EPO Stimulation” value is −1.43%.

Source of the values: patent US20150284335A1, “Benzoimidazoles as prolyl hydroxylase inhibitors” (Janssen Pharmaceutica NV, priority 2008, published 2015).
